Assay results: patent publication US5070210A, “Novel ketenimines as intermediates for insecticides” (ICI Americas Inc., priority 1990, dated 1991)

Columns and labels:
Format in all cases: in vivo
[1] = test system: Cabbage Looper [Trichoplusia ni (Hubner)]; assay: Cabbage looper insecticidal test; details: second-instar larvae, percent in solution; 3-5 days
Experimental: (§1) The compounds in Tables 1 and 2 above were tested for insecticidal activity using the following testing procedures. LC50 values, based on the results of these tests and calculated according to dosage-mortality curves, are expressed in Table 3.
Cabbage Looper [Trichoplusia ni (Hubner)]:
Test compounds were diluted in a 50-50 acetone-water solution. Cotyledons of hyzini squash (Calabacita abobrinha), approximately 1×1.5 inches, were immersed in the test solutions for 2-3 seconds and placed on a wire screen to dry. The dried leaves were placed in petri dishes containing a moistened piece of filter paper and infested with 5 second-instar cabbage looper larvae. The dishes were placed in a high humidity chamber. Mortality of the larvae was recorded 3-5 days later. Test concentrations ranged from 0.1% downward. The LC-50 value is expressed below in Table 3 under the heading "CL" in terms of percent of the test compound in solution.

[2] = test system: Tobacco Budworm [Heliothis virescens (Fabricius)] eggs; assay: Tobacco budworm egg test; details: 2-day old eggs, percent in solution
Experimental: as §1
Tobacco Budworm [Heliothis virescens (Fabricius)]:
(b). Eggs: Paper towel patches of 2-day old eggs of the tobacco budworm were dipped in acetone solutions of the test compound and placed in petri dishes containing a portion of larval rearing medium. Treated eggs were maintained at 78° F. and mortality was recorded after all control eggs had hatched and the young larvae were feeding on the media. Test concentrations ranged from 0.1% downward. The LC-50 value is expressed below in Table 3 under the heading "TBW-E" in terms of percent of the test compound in the solution.

[3] = test system: Housefly [Musca domestica]; assay: Housefly insecticidal test; details: μg per 25 female flies; mortality after 48 hours
Experimental: as §1
Housefly [Musca domestica]:
Test compounds were diluted in acetone and aliquots pipetted onto the bottom of aluminum dishes. To ensure even spreading of the chemical on the bottom of the dishes, 1 ml of acetone containing 0.01% peanut oil was also added to each dish. After all solvents had evaporated, the dishes were placed in circular cardboard cages containing 25 female houseflies, 1-2 days old. The cages were covered on the bottom with cellophane and on the top with tulle netting, and each contained a sugar-water saturated cotton plug for maintenance of the flies. Mortality was recorded after 48 hours. Test levels ranged from 100 μg/25 female houseflies downward. The LC-50 value is expressed below in Table 3 under the heading "HF", in terms of μg of the test compound per 25 female flies.

| SMILES | LC50, CL [1] | LC50, TBW, E (TBW-E) [2] | LC50, HF [3] |
| --- | --- | --- | --- |
| Cc1ccc(Oc2cccc(COC(=Nc3ccc(F)cc3)C(C)C)c2)cc1 [Compound 231] | 0.003% | > 0.1% | > 100 µg |
| CC(C)C(=Nc1c(F)c(F)c(F)c(F)c1F)OCc1cccc(Oc2ccc(F)cc2F)c1 [Compound 232] | 0.004% | > 0.1% | > 100 µg |
| CC(C)C(=Nc1ccc(C(C)(C)C)cc1)OCc1cccc(Oc2ccc(F)cc2)c1 [Compound 235] | 0.004% | > 0.1% | > 100 µg |
| Cc1cc(N=C(OCc2cccc(Oc3ccc(F)cc3)c2)C(C)C)ccc1F [Compound 236] | 0.0018% | 0.06% | 7 µg |
| CC(C)C(=Nc1ccc(Cl)cc1)OCc1cccc(Oc2ccc(Br)cc2)c1 [Compound 237] | 0.0006% | 0.075% | 50 µg |
| CC(C)C(=Nc1ccc2c(c1)OC(C)(C)O2)OCc1cccc(Oc2ccc(Cl)cc2)c1 [Compound 241] | 0.0004% | > 0.1% | > 100 µg |
| CC(C)C(=Nc1ccc2c(c1)CCO2)OCc1cccc(Oc2ccccc2)c1 [Compound 243] | 0.005% | > 0.1% | 9 µg |
| CC(C)C(=Nc1ccc2c(c1)OCO2)OCc1cccc(Oc2ccc(C(F)(F)F)cc2)c1 [Compound 246] | 0.004% | > 0.1% | 60 µg |
| CC(C)C(=Nc1ccc(F)c(Cl)c1)OCc1cccc(Oc2ccc(C(F)(F)F)cc2)c1 [Compound 247] | 0.009% | > 0.1% | > 100 µg |
| COc1cc(N=C(OCc2cccc(Oc3ccccc3)c2)C(C)C)cc(OC)c1OC [Compound 248] | 0.02% | > 0.1% | 40 µg |
| Cc1cccc(N=C(OCc2cccc(Oc3ccccc3)c2)C(C)C)c1C [Compound 249] | 0.0025% | 0.035% | 36 µg |
| Cc1ccc(C)c(N=C(OCc2cccc(Oc3ccccc3)c2)C(C)C)c1 [Compound 250] | 0.004% | 0.038% | 38 µg |
| CC(C)C(=Nc1ccc(Br)c(Br)c1)OCc1cccc(Oc2ccc(F)cc2)c1 [Compound 251] | 0.0005% | 0.06% | 25 µg |
| CC(C)C(=Nc1ccc(Br)c(Br)c1)OCc1cccc(Oc2ccccc2)c1 [Compound 252] | 0.0035% | 0.04% | 34 µg |
| CC(C)C(=Nc1cccc(Cl)c1)OCc1cccc(Oc2ccc(Br)cc2)c1 [Compound 260] | 0.00075% | > 0.1% | 22 µg |
| CCC(C)C(=Nc1ccc(F)c(Cl)c1)OCc1ccc(F)c(Oc2ccccc2)c1 (stereo not drawn) [Compound 261] | 0.001% | 0.05% | 24 µg |
| Cc1ccc(Cl)cc1N=C(OCc1cccc(Oc2ccccc2)c1)C(C)C [Compound 263] | 0.05% | > 0.1% | > 100 µg |
| COc1ccc(Cl)cc1N=C(OCc1cccc(Oc2ccccc2)c1)C(C)C [Compound 264] | 0.03% | > 0.1% | > 100 µg |
| CC(C)C(=Nc1ccc(F)cc1)OCc1cccc(Oc2ccc(F)c(F)c2)c1 [Compound 265] | 0.00025% | 0.07% | 10 µg |
| CC(C)C(=Nc1cccc(SC(F)(F)F)c1)OCc1cccc(Oc2ccc(F)cc2)c1 [Compound 272] | 0.0024% | > 0.1% | > 100 µg |
| CC(C)C(=Nc1ccc2c(c1)OCO2)OCc1cc(Oc2ccc(F)cc2)ccc1Cl [Compound 274] | 0.1% | > 0.1% | > 100 µg |
| CC(C)C(=Nc1ccc(F)c(F)c1)OCc1cccc(Oc2ccc(Br)cc2)c1 [Compound 275] | 0.00012% | 0.045% | 21 µg |

| SMILES | LC50, CL [1] | LC50, TBW, E (TBW-E) [2] | LC50, HF [3] |
| --- | --- | --- | --- |
| CC(C)C(=Nc1ccc(F)c(Br)c1)OCc1cccc(Oc2ccc(Br)cc2)c1 [Compound 276] | 0.002% | 0.1% | 39 µg |
| CC(C)C(=Nc1ccc(C2CCCCC2)cc1)OCc1cccc(Oc2ccc(F)cc2)c1 [Compound 280] | 0.024% | > 0.1% | > 100 µg |
| CC(C)C(=Nc1ccc(C(F)(F)F)cc1)OCc1ccc(F)c(Oc2ccc(F)cc2)c1 [Compound 287] | 0.0025% | > 0.1% | > 100 µg |
| CC(C)C(=Nc1cccc(OC(F)(F)C(F)F)c1)OCc1cccc(Oc2ccc(F)cc2)c1 [Compound 288] | 0.0015% | > 0.1% | > 100 µg |
| CCC(CC)C(=Nc1ccc(Cl)cc1)OCc1cccc(Oc2ccc(F)cc2)c1 [Compound 290] | 0.017% | > 0.1% | > 100 µg |
| CCC(CC)C(=Nc1cccc(C(F)(F)F)c1)OCc1cccc(Oc2ccc(F)cc2)c1 [Compound 291] | 0.004% | > 0.1% | > 100 µg |
| CC(Br)C(=Nc1ccc(F)c(Cl)c1)OCc1cccc(Oc2ccc(F)cc2)c1 (stereo not drawn) [Compound 305] | 0.048% | > 0.1% | > 100 µg |
| CC(C)C(=Nc1ccc(C(C)(C)C)c(Cl)c1)OCc1cccc(Oc2ccc(F)cc2)c1 [Compound 308] | 0.009% | > 0.1% | > 100 µg |
| CC(C)(F)C(=Nc1ccc(F)c(Cl)c1)OCc1cccc(Oc2ccc(F)cc2)c1 [Compound 309] | 0.00017% | 0.07% | > 100 µg |
| CC(C)C(=Nc1ccc(Cl)cc1Cl)OCc1cccc(Oc2ccccc2)c1 [Compound 311] | 0.0017% | 0.1% | 22 µg |
| CC(C)C(=Nc1ccc(Cl)cc1Cl)OCc1cccc(Oc2ccc(F)cc2)c1 [Compound 312] | 0.006% | > 0.1% | > 100 µg |
| CC(C)C(=Nc1ccc2c(c1)OCO2)OCc1ccc(F)c(Oc2ccc(Cl)cc2)c1 [Compound 313] | 0.00025% | 0.013% | > 100 µg |
| CCC(C)C(=Nc1ccc(C(C)C)cc1)OCc1cccc(Oc2ccccc2)c1 (stereo not drawn) [Compound 317] | 0.0045% | 0.03% | > 100 µg |
| CC(C)(F)C(=Nc1ccc(F)c(F)c1)OCc1cccc(Oc2ccc(F)cc2)c1 [Compound 318] | 0.0007% | > 0.1% | 19 µg |
| CC(C)(F)C(=Nc1cccc(C(F)(F)F)c1)OCc1cccc(Oc2ccc(F)cc2)c1 [Compound 319] | 0.0007% | > 0.1% | 44 µg |
| CCC(=Nc1ccc(C(C)C)cc1)OCc1cccc(Oc2ccc(F)cc2)c1 [Compound 320] | 0.0075% | > 0.1% | > 100 µg |
| CCC(CC)C(=Nc1ccc(C(C)C)cc1)OCc1cccc(Oc2ccccc2)c1 [Compound 321] | 0.05% | > 0.1% | > 100 µg |
| CC(C)c1ccc(N=C(OCc2cccc(Oc3ccc(F)cc3)c2)C(C)(C)C)cc1 [Compound 322] | 0.007% | > 0.1% | > 100 µg |
| CC(C)C(=Nc1ccc(F)c(Cl)c1)OCc1cc(F)cc(Oc2ccc(F)cc2)c1 [Compound 327] | 0.005% | > 0.1% | > 100 µg |
| CC(C)CC(=Nc1ccc(C(C)C)cc1)OCc1cccc(Oc2ccc(F)cc2)c1 [Compound 329] | 0.033% | > 0.1% | 7 µg |
| CC(C)C(=Nc1ccc(F)c(Cl)c1)OCc1cccc(Oc2ccc(I)cc2)c1 [Compound 447] | 0.0009% | > 0.1% | 33 µg |
| CC(C)C(=Nc1ccc(F)c(Cl)c1)OCc1ccc(Cl)c(Oc2ccc(F)cc2)c1 [Compound 448] | 0.003% | 0.03% | 16 µg |
